Results as given in the supplement of paper PMC10307832.

Legend:
Assay in all cases: relative viability (nuclei count vs DMSO), 5 days (fraction); higher = more cells survive
Idelalisib + Foretinib = compound: CC[C@H](Nc1ncnc2[nH]cnc12)c1nc2cccc(F)c2c(=O)n1-c1ccccc1 [Idelalisib] + COc1cc2c(Oc3ccc(NC(=O)C4(C(=O)Nc5ccc(F)cc5)CC4)cc3F)ccnc2cc1OCCCN1CCOCC1 [Foretinib] (partner 0.25 µM)
Outline: (§1)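 Each reported value is a median over duplicate plates. It expresses relative viability: treated-well nuclei count divided by vehicle-well nuclei count. Lung cancer cell lines in 1536-well plates were dosed by pin tool a day after seeding, alone with one drug or with a fixed anchor-drug dose plus five library-drug doses (not always all listed) in √10 steps, and nuclei were counted after 5 days.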

Pemetrexed + Crizotinib = compound: Nc1nc2[nH]cc(CCc3ccc(C(=O)N[C@@H](CCC(=O)O)C(=O)O)cc3)c2c(=O)[nH]1 [Pemetrexed] + C[C@@H](Oc1cc(-c2cnn(C3CCNCC3)c2)cnc1N)c1c(Cl)ccc(F)c1Cl [Crizotinib] (partner 1 µM)
Outline: as §1

Idelalisib + Palbociclib = compound: CC[C@H](Nc1ncnc2[nH]cnc12)c1nc2cccc(F)c2c(=O)n1-c1ccccc1 [Idelalisib] + CC(=O)c1c(C)c2cnc(Nc3ccc(N4CCNCC4)cn3)nc2n(C2CCCC2)c1=O [Palbociclib] (partner 0.5 µM)
Outline: as §1

Pemetrexed + AZD7762 = compound: Nc1nc2[nH]cc(CCc3ccc(C(=O)N[C@@H](CCC(=O)O)C(=O)O)cc3)c2c(=O)[nH]1 [Pemetrexed] + NC(=O)Nc1cc(-c2cccc(F)c2)sc1C(=O)N[C@H]1CCCNC1 [AZD7762] (partner 0.2 µM)
Outline: as §1

Cell Line | relative viability (Idelalisib + Foretinib; first compound 0.04 µM) | relative viability (Idelalisib + Foretinib; first compound 0.1265 µM) | relative viability (Idelalisib + Foretinib; first compound 0.4 µM) | relative viability (Idelalisib + Foretinib; first compound 1.265 µM) | relative viability (Idelalisib + Foretinib; first compound 4 µM) | relative viability (Pemetrexed + Crizotinib; first compound 0.002 µM) | relative viability (Pemetrexed + Crizotinib; first compound 0.006325 µM) | relative viability (Pemetrexed + Crizotinib; first compound 0.02 µM) | relative viability (Pemetrexed + Crizotinib; first compound 0.06325 µM) | relative viability (Pemetrexed + Crizotinib; first compound 0.2 µM) | relative viability (Idelalisib + Palbociclib; first compound 0.04 µM) | relative viability (Idelalisib + Palbociclib; first compound 0.1265 µM) | relative viability (Idelalisib + Palbociclib; first compound 0.4 µM) | relative viability (Idelalisib + Palbociclib; first compound 1.265 µM) | relative viability (Idelalisib + Palbociclib; first compound 4 µM) | relative viability (Pemetrexed + AZD7762; first compound 0.002 µM) | relative viability (Pemetrexed + AZD7762; first compound 0.006325 µM) | relative viability (Pemetrexed + AZD7762; first compound 0.02 µM) | relative viability (Pemetrexed + AZD7762; first compound 0.06325 µM) | relative viability (Pemetrexed + AZD7762; first compound 0.2 µM)
A549 | 1.18 | 1.03 | 0.917 | 1 | 1.01 | 0.672 | 0.653 | 0.971 | 0.761 | 0.78 |  |  |  |  |  |  |  |  |  | 
COR-L23 | 1.12 | 1.02 | 0.982 | 1.08 | 0.898 | 0.589 | 0.631 | 0.636 | 0.26 | 0.14 | 0.314 | 0.299 | 0.239 | 0.315 | 0.281 |  |  |  |  | 
COR-L 105 | 1.01 | 1.34 | 0.992 | 1.01 | 0.672 | 0.78 | 0.75 | 0.895 | 0.88 | 0.75 | 0.431 | 0.42 | 0.353 | 0.424 | 0.433 |  |  |  |  | 
Calu-6 | 0.895 | 0.909 | 0.844 | 0.894 | 0.767 | 0.814 | 0.754 | 0.922 | 0.72 | 0.68 |  |  |  |  |  |  |  |  |  | 
EBC-1 | 0.0986 | 0.0952 | 0.0971 | 0.107 | 0.0962 | 0.175 | 0.174 | 0.209 | 0.165 | 0.183 |  |  |  |  |  |  |  |  |  | 
IA-LM | 1.17 | 1.41 | 1.24 | 1.31 | 1.19 | 0.807 | 0.665 | 0.772 | 0.804 | 0.634 |  |  |  |  |  |  |  |  |  | 
NCI-H520 | 0.738 | 0.741 | 0.587 | 0.7 | 0.553 | 0.776 | 0.679 | 1.08 | 0.969 | 0.79 | 0.24 | 0.184 | 0.193 | 0.185 | 0.156 |  |  |  |  | 
NCI-H522 |  |  |  |  |  |  |  |  |  |  | 0.958 | 0.793 | 0.903 | 0.947 | 0.796 | 0.999 | 0.806 | 1.05 | 0.91 | 0.805
NCI-H596 | 0.95 | 0.885 | 0.671 | 0.909 | 0.681 | 0.854 | 0.967 | 1.09 | 0.78 | 0.665 |  |  |  |  |  | 1.17 | 1.1 | 1.07 | 0.472 | 0.362
NCI-H661 | 1.12 | 1.06 | 1.02 | 1.01 | 1.02 | 1.06 | 1.03 | 0.949 |  | 0.944 | 0.417 | 0.425 | 0.398 | 0.459 | 0.421 |  |  |  |  | 
NCI-H1299 | 1.14 | 1.16 | 1.11 | 1.16 | 1.2 | 0.962 | 0.942 | 0.98 | 0.881 | 0.927 |  |  |  |  |  |  |  |  |  | 
NCI-H1563 | 0.969 | 0.941 | 0.873 | 0.877 | 0.788 | 0.946 | 0.837 | 0.878 | 0.911 | 0.938 |  |  |  |  |  |  |  |  |  | 
NCI-H1623 | 0.849 | 0.8 | 0.754 | 0.706 | 0.846 |  |  |  |  |  |  |  |  |  |  |  |  |  |  | 
NCI-H1648 |  |  |  |  |  |  |  |  |  |  | 0.239 | 0.291 | 0.298 | 0.262 | 0.315 | 0.671 | 0.703 | 0.831 | 0.686 | 0.623
NCI-H1650 | 1.33 | 1.42 | 0.944 | 0.864 | 0.917 | 0.971 | 0.902 | 0.939 | 0.689 | 0.332 | 0.361 | 0.338 | 0.297 | 0.324 | 0.291 |  |  |  |  | 
NCI-H1703 | 0.344 | 0.356 | 0.311 | 0.399 | 0.303 | 0.687 | 0.566 | 0.763 | 0.628 | 0.739 |  |  |  |  |  | 0.127 | 0.133 | 0.127 | 0.12 | 0.146
NCI-H2009 | 1.17 | 1.21 | 1.16 | 1.23 | 1.14 | 1.01 | 1.04 | 1.01 | 1.06 | 1.04 | 0.259 | 0.224 | 0.176 | 0.202 | 0.13 |  |  |  |  | 
NCI-H2023 | 0.92 | 0.859 | 0.617 | 0.739 | 0.637 | 0.632 | 0.616 | 0.685 | 0.607 | 0.377 | 0.368 | 0.492 | 0.295 | 0.295 | 0.295 |  |  |  |  | 
NCI-H2228 | 0.874 | 0.835 | 0.614 | 0.87 | 0.788 | 0.424 | 0.514 | 0.409 | 0.358 | 0.31 | 0.633 | 0.846 | 0.737 | 0.958 | 0.743 |  |  |  |  | 
SK-LU-1 | 0.816 | 0.765 | 0.811 | 0.693 | 0.766 | 0.771 | 0.883 | 0.858 | 0.953 | 0.731 | 0.424 | 0.408 | 0.504 | 0.375 | 0.348 |  |  |  |  | 
SK-MES-1 | 0.904 | 0.768 | 0.55 | 0.768 | 0.544 | 1.06 | 0.938 | 0.99 | 1.01 | 0.832 | 0.296 | 0.311 | 0.299 | 0.315 | 0.288 |  |  |  |  | 
SW 1573 | 1.05 | 1.07 | 0.786 | 0.986 | 0.971 | 0.658 | 0.79 | 0.919 | 0.888 | 0.791 | 0.436 | 0.376 | 0.346 | 0.372 | 0.255 |  |  |  |  | 
